Source: PubChem BioAssay (NCI)
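Step 1: Grow cells in 96-well plates. Step 2: Expose to compound for 48 hours at 5 concentrations. Step 3: Interpolate endpoints linearly; if unreached, use highest concentration. Here, GI50 denotes the concentration required for 50% inhibition of growth. The concentration for full growth arrest is given as TGI.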

How the values were obtained:
Assay in all cases: inhibition of tumour cell growth, NCI panel, 48 h
[1] = system: SF-539 CNS
[2] = system: SNB-19 CNS
[3] = system: A549 NSCLC
[4] = system: SNB-75 CNS
[5] = system: SK-MEL-2 melanoma
[6] = system: HCT-116 colon
[7] = system: ACHN renal
[8] = system: HT29 colon
[9] = system: SW-620 colon
[10] = system: T-47D breast
[11] = system: PC-3 prostate
[12] = system: CCRF-CEM leukemia
[13] = system: LOX IMVI melanoma
[14] = system: K-562 leukemia
[15] = system: SR leukemia
[16] = system: OVCAR-3 ovarian
[17] = system: UACC-62 melanoma
[18] = system: OVCAR-5 ovarian
[19] = system: MDA-MB-435
[20] = system: SK-MEL-5 melanoma
[21] = system: A498 renal
[22] = system: NCI/ADR-RES ovarian
[23] = system: MOLT-4 leukemia
[24] = system: SK-OV-3 ovarian
[25] = system: SF-295 CNS
[26] = system: HL-60(TB) leukemia
[27] = system: DU-145 prostate
[28] = system: MCF7 breast
[29] = system: NCI-H23 lung
[30] = system: RXF 393 renal
[31] = system: BT-549 breast
[32] = system: COLO 205 colon
[33] = system: IGROV1 ovarian
[34] = system: NCI-H226 lung
[35] = system: NCI-H522 lung
[36] = system: SK-MEL-28 melanoma
[37] = system: HOP-62 NSCLC
[38] = system: CAKI-1 renal
[39] = system: TK-10 renal
[40] = system: EKVX NSCLC
[41] = system: UACC-257 melanoma
[42] = system: SF-268 CNS
[43] = system: 786-0 renal
[44] = system: OVCAR-8 ovarian
[45] = system: HCT-15 colon
[46] = system: UO-31 renal
[47] = system: HCC-2998 colon
[48] = system: HOP-92 NSCLC
[49] = system: MDA-MB-231 breast
[50] = system: RPMI-8226 leukemia
[51] = system: U251 CNS
[52] = system: HS 578T breast
[53] = system: MALME-3M melanoma
[54] = system: M14 melanoma
[55] = system: NCI-H460 lung
[56] = system: KM12 colon
[57] = system: OVCAR-4 ovarian
[58] = system: SN12C renal

In the case of `Cc1ccc(C(=O)Nc2ccc(CN3CCN(C)CC3)c(C(F)(F)F)c2)cc1C#Cc1cnc(N)cc1C#N`, the GI50 [1] is reported as 277 nM, the TGI [1] is reported as 926 nM and the GI50 [2] is reported as 539 nM. The TGI [2] was 1300 nM, the GI50 [3] was 233 nM and the TGI [3] was 958 nM. It also gave a GI50 [4] of 112 nM, a TGI [4] of 798 nM and a GI50 [5] of 108 nM. The TGI [5] was 479 nM, the GI50 [6] was 85.2 nM and the TGI [6] was 642 nM. It also gave a GI50 [7] of 74 nM, a TGI [7] of 555 nM and a GI50 [8] of 51 nM. The TGI [8] was 729 nM, the GI50 [9] was 330 nM and the TGI [9] was 1150 nM. For the same molecule, the GI50 [10] was 605 nM, the TGI [10] was 8710 nM and the GI50 [11] was 343 nM. It also gave a TGI [11] of 1760 nM, a GI50 [12] of 460 nM and a TGI [12] of 9610 nM. It also gave a GI50 [13] of 39.4 nM, a TGI [13] of 522 nM and a GI50 [14] of 5 nM. The TGI [14] was 6120 nM, the GI50 [15] was 162 nM and the TGI [15] was 1230 nM. The GI50 [16] was 211 nM, the TGI [16] was 1010 nM and the GI50 [17] was 31 nM. The TGI [17] was 452 nM, the GI50 [18] was 309 nM and the TGI [18] was 1420 nM. For the same molecule, the GI50 [19] was 72.1 nM, the TGI [19] was 659 nM and the GI50 [20] was 741 nM. It also gave a TGI [20] of 1430 nM, a GI50 [21] of 159 nM and a TGI [21] of 701 nM. The GI50 [22] was 270 nM, the TGI [22] was 1680 nM and the GI50 [23] was 137 nM. The TGI [23] was 1080 nM, the GI50 [24] was 186 nM and the TGI [24] was 2500 nM. It also gave a GI50 [25] of 315 nM, a TGI [25] of 1160 nM and a GI50 [26] of 233 nM. The TGI [26] was 1080 nM, the GI50 [27] was 127 nM and the TGI [27] was 838 nM. The GI50 [28] was 701 nM, the TGI [28] was 1580 nM and the GI50 [29] was 340 nM. It also gave a TGI [29] of 1280 nM, a GI50 [30] of 129 nM and a TGI [30] of 706 nM. It also gave a GI50 [31] of 654 nM, a TGI [31] of 2670 nM and a GI50 [32] of 90.1 nM. The TGI [32] was 714 nM, the GI50 [33] was 26.5 nM and the TGI [33] was 276 nM. The GI50 [34] was 155 nM, the TGI [34] was 4950 nM and the GI50 [35] was 176 nM. The TGI [35] was 925 nM, the GI50 [36] was 106 nM and the TGI [36] was 701 nM. For the same molecule, the GI50 [37] was 298 nM, the TGI [37] was 2050 nM and the GI50 [38] was 82.8 nM. For the same molecule, the TGI [38] was 538 nM, the GI50 [39] was 190 nM and the TGI [39] was 833 nM. The GI50 [40] was 366 nM, the TGI [40] was 1440 nM and the GI50 [41] was 132 nM. For the same molecule, the TGI [41] was 834 nM, the GI50 [42] was 200 nM and the TGI [42] was 1200 nM. For the same molecule, the GI50 [43] was 162 nM, the TGI [43] was 826 nM and the GI50 [44] was 224 nM. It also gave a TGI [44] of 1150 nM, a GI50 [45] of 130 nM and a TGI [45] of 762 nM. It also gave a GI50 [46] of 94.9 nM, a TGI [46] of 442 nM and a GI50 [47] of 407 nM. The TGI [47] was 1170 nM, the GI50 [48] was 49.6 nM and the TGI [48] was 566 nM. For the same molecule, the GI50 [49] was 112 nM, the TGI [49] was 621 nM and the GI50 [50] was 496 nM. It also gave a TGI [50] of 2700 nM, a GI50 [51] of 222 nM and a TGI [51] of 997 nM. For the same molecule, the GI50 [52] was 143 nM, the TGI [52] was 1330 nM and the GI50 [53] was 27.6 nM. The TGI [53] was 187 nM, the GI50 [54] was 21 nM and the TGI [54] was 511 nM. For the same molecule, the GI50 [55] was 91.5 nM, the TGI [55] was 968 nM and the GI50 [56] was 122 nM. For the same molecule, the TGI [56] was 716 nM, the GI50 [57] was 99.8 nM and the TGI [57] was 1420 nM. The GI50 [58] was 91.8 nM and the TGI [58] was 733 nM.
